In US7767679B2, “Sulfonylamino-derivatives as novel inhibitors of histone deacetylase” (Janssen Pharmaceutica N.V., priority 2002, dated 2010):

Columns and labels:
[1] = system: A2780 ovarian carcinoma cells; assay: Antiproliferative activity on A2780 cells (MTT); assay type: cell-based; details: Homo sapiens, 96 h, four days of incubation, read-out: Cellular activity pIC50 (converted)
Procedure: Cellular activity of the compounds of formula (I) was determined on A2780 tumour cells using a colorimetric assay for cell toxicity or survival (Mosmann Tim, Journal of Immunological Methods 65: 55-63, 1983)(see example C.2).
All compounds tested were dissolved in DMSO and further dilutions were made in culture medium. Final DMSO concentrations never exceeded 0.1% (v/v) in cell proliferation assays. Controls contained A2780 cells and DMSO without compound and blanks contained DMSO but no cells. MTT was dissolved at 5 mg/ml in PBS. A glycine buffer comprised of 0.1 M glycine and 0.1 M NaCl buffered to pH 10.5 with NaOH (1 N) was prepared (all reagents were from Merck).
The human A2780 ovarian carcinoma cells (a kind gift from Dr. T. C. Hamilton [Fox Chase Cancer Centre, Pennsylvania, USA]) were cultured in RPMI 1640 medium supplemented with 2 mM L-glutamine, 50 μg/ml gentamicin and 10% fetal calf serum. Cells were routinely kept as monolayer cultures at 37° C. in a humidified 5% CO2 atmosphere. Cells were passaged once a week using a trypsin/EDTA solution at a split ratio of 1:40. All media and supplements were obtained from Life Technologies. Cells were free of mycoplasma contamination as determined using the Gen-Probe Mycoplasma Tissue Culture kit (supplier: BioMérieux).
Cells were seeded in NUNC™ 96-well culture plates (Supplier: Life Technologies) and allowed to adhere to the plastic overnight. Densities used for plating were 1500 cells per well in a total volume of 200 μl medium. After cell adhesion to the plates, medium was changed and drugs and/or solvents were added to a final volume of 200 μl. Following four days of incubation, medium was replaced by 200 μl fresh medium and cell density and viability was assessed using an […] assay. To each well, 25 μl μl MTT solution was added and the cells were further incubated for 2 hours at 37° C. The medium was then carefully aspirated and the blue MT-formazan product was solubilized by addition of 25 μl glycine buffer followed by 100 μl of DMSO. […] Within an experiment, the results for each experimental condition are the mean of 3 replicate wells. For initial screening purposes, compounds were tested at a single fixed concentration of 10^−6 M. For active compounds, the experiments were repeated to establish full concentration-response curves. For each experiment, controls (containing no drug) and a blank incubation (containing no cells or drugs) were run in parallel. The blank value was subtracted from all control and sample values. For each sample, the mean value for cell growth (in absorbance units) was expressed as a percentage of the mean value for cell growth of the control. […] Herein the effects of test compounds are expressed as pIC50 (the negative log value of the IC50-value).

[2] = molecular target: histone deacetylase (HeLa nuclear extracts); assay: In vitro assay for inhibition of histone deacetylase; assay type: biochemical; details: HeLa nuclear extracts 60 μg/ml, [3H]acetylated histone H4 peptide substrate, 30 min
Procedure: The in vitro assay for inhibition of histone deacetylase (see example C.1) measures the inhibition of HDAC enzymatic activity obtained with the compounds of formula (I).
HeLa nuclear extracts (supplier: Biomol) were incubated at 60 μg/ml with 2×10^−8 M of radiolabeled peptide substrate. As a substrate for measuring HDAC activity a synthetic peptide, i.e. the amino acids 14-21 of histone H4, was used. The substrate is biotinylated at the NH2-terminal part with a 6-aminohexanoic acid spacer, and is protected at the COOH-terminal part by an amide group and specifically [^3H]acetylated at lysine 16. The substrate, biotin-(6-aminohexanoic)Gly-Ala-([^3H]-acetyl-Lys-Arg-His-Arg-Lys-Val-NH2), was added in a buffer containing 25 mM Hepes, 1 M sucrose, 0.1 mg/ml BSA and 0.01% Triton X-100 at pH 7.4. After 30 min the deacetylation reaction was terminated by the addition of HCl and acetic acid. (final concentration […] respectively). After stopping the reaction, the free ^3H-acetate was extracted with ethylacetate. After mixing and centrifugation, the radioactivity in an aliquot of the upper (organic) phase was counted in β-counter.
For each experiment, controls (containing HeLa nuclear extract and DMSO without compound), a blank incubation (containing DMSO but no HeLa nuclear extract or compound) and samples (containing compound dissolved in DMSO and HeLa nuclear extract) were run in parallel. In first instance, compounds were tested at a concentration of 10^−5M. […] In each test the blank value was substracted from both the control and the sample values. The control sample represented 100% of substrate deactylation. For each sample the radioactivity was expressed as a percentage of the mean value of the controls. […] Herein the effects of test compounds are expressed as pIC50 (the negative log value of the IC50-value).

Structure (SMILES): O=C(NO)c1cnc(N2CCN(CCCNS(=O)(=O)c3ccc4ccccc4c3)CC2)nc1 (hydrate or solvate) [Co. No. 26]
- melting point: 115 °C

Structure (SMILES): O=C(NO)c1ccc(N2CCC(NS(=O)(=O)c3ccc4ccccc4c3)CC2)cc1 [Co. No. 1]
- IC50 [1]: 5280 nM
- Enzyme activity pIC50 [2]: 6.523

Structure (SMILES): O=C(Nc1ccc(N2CCC(NS(=O)(=O)c3ccc(-c4ccccc4)cc3)CC2)cc1)/C(Cc1ccccc1)=N/O [Co. No. 3]
- melting point: 262 °C
- IC50 [1]: 1800 nM
- Enzyme activity pIC50 [2]: <5

Structure (SMILES): O=C(NO)c1cnc(N2CCC(NS(=O)(=O)c3ccc4ccccc4c3)CC2)nc1N1CCN(S(=O)(=O)c2ccc3ccccc3c2)CC1 [Co. No. 6]
- melting point: 80 °C
- IC50 [1]: 2090 nM
- Enzyme activity pIC50 [2]: <5

Structure (SMILES): O=C(NO)c1ccc(N2CCCC(NS(=O)(=O)c3ccc4ccccc4c3)CC2)nc1 (stereo not drawn) [Co. No. 10]
- melting point: 142 °C
- IC50 [1]: 2120 nM
- Enzyme activity pIC50 [2]: 6.893

Structure (SMILES): O=C(NO)c1cnc(N2CCC(NS(=O)(=O)N3CCOCC3)CC2)nc1 [Co. No. 25]
- melting point: 217 °C
- IC50 [1]: > 10000 nM
- Enzyme activity pIC50 [2]: 6.449

Structure (SMILES): O=C(NO)c1cnc(N2CCN(CCCNS(=O)(=O)c3ccc4ccccc4c3)CC2)nc1 [Co. No. 26]
- IC50 [1]: 546 nM
- Enzyme activity pIC50 [2]: 7.85

Structure (SMILES): CN(C1CCN(c2ncc(C(=O)NO)cn2)C1)S(=O)(=O)c1ccc2ccccc2c1 (stereo not drawn) [Co. No. 27]
- melting point: 158 °C
- IC50 [1]: 1660 nM
- Enzyme activity pIC50 [2]: 7.49

Structure (SMILES): O=C(NO)c1cnc(N2CCC(CNS(=O)(=O)N3CCOCC3)CC2)nc1 [Co. No. 28]
- melting point: 217 °C
- IC50 [1]: 7780 nM
- Enzyme activity pIC50 [2]: 7.074

Structure (SMILES): CN(C1CCN(c2ncc(C(=O)NO)cn2)CC1)S(=O)(=O)c1ccc2ccccc2c1 [Co. No. 29]
- melting point: > 260 °C
- IC50 [1]: 3720 nM
- Enzyme activity pIC50 [2]: 7.04

Structure (SMILES): CS(=O)(=O)c1ccc(-c2ccccc2S(=O)(=O)NCC2CCN(c3ncc(C(=O)NO)cn3)CC2)cc1 [Co. No. 30]
- IC50 [1]: 2140 nM
- Enzyme activity pIC50 [2]: 7.614

Structure (SMILES): Cc1cc(C(=O)NO)ccc1N1CCC(NS(=O)(=O)c2ccc3ccccc3c2)CC1 [compound 11]
- IC50 [1]: 1640 nM
- Enzyme activity pIC50 [2]: 5.829

Structure (SMILES): O=C(NO)c1ccc(N2CCC(NS(=O)(=O)c3ccc4ccccc4c3)CC2)nc1 [compound 12]
- IC50 [1]: 2910 nM
- Enzyme activity pIC50 [2]: 7.438

Structure (SMILES): Cc1cc(C(=O)NO)ccc1N1CCC(NS(=O)(=O)c2ccc(-c3ccccc3)cc2)CC1 [compound 13]
- IC50 [1]: 698 nM
- Enzyme activity pIC50 [2]: 5.428

Structure (SMILES): O=C(NO)c1ccc(N2CCC(NS(=O)(=O)c3ccc(-c4ccccc4)cc3)CC2)cc1 [compound 14]
- IC50 [1]: 2090 nM
- Enzyme activity pIC50 [2]: 6.116

Structure (SMILES): O=C(NO)c1ccc(N2CCC(NS(=O)(=O)c3ccc4ccccc4c3)C2)cc1 (stereo not drawn) [compound 16]
- IC50 [1]: > 10000 nM
- Enzyme activity pIC50 [2]: 6.293

Structure (SMILES): O=C(NO)c1ccc(N2CCC(NS(=O)(=O)c3ccc4ccccc4c3)C2)nc1 (stereo not drawn) [compound 17]
- IC50 [1]: > 10000 nM
- Enzyme activity pIC50 [2]: 6.95

Structure (SMILES): O=C(NO)c1ccc(N2CCC(NS(=O)(=O)c3ccc(-c4ccccc4)cc3)C2)nc1 (stereo not drawn) [compound 18]
- IC50 [1]: 49.8 nM
- Enzyme activity pIC50 [2]: 5.321

Structure (SMILES): O=C(Nc1ccc(N2CCC(NS(=O)(=O)c3ccc4ccccc4c3)CC2)cc1)/C(Cc1ccccc1)=N/O [compound 19]
- IC50 [1]: 4300 nM
- Enzyme activity pIC50 [2]: <5

Structure (SMILES): O=C(NO)c1cnc(N2CCC(CNS(=O)(=O)c3ccc(-c4ccccc4)cc3)CC2)nc1 [compound 21]
- IC50 [1]: 362 nM
- Enzyme activity pIC50 [2]: 8.199

Structure (SMILES): CO[C@@H]1CN(c2ncc(C(=O)NO)cn2)CC[C@@H]1NS(=O)(=O)c1ccc2ccccc2c1 [compound 23]
- IC50 [1]: 3370 nM
- Enzyme activity pIC50 [2]: 6.662

Structure (SMILES): O=C(NO)c1cnc(N2CCCC(NS(=O)(=O)c3ccc4ccccc4c3)CC2)nc1 (stereo not drawn) [compound 24]
- IC50 [1]: 1070 nM
- Enzyme activity pIC50 [2]: 7.903

Structure (SMILES): O=C(NO)c1cnc(N2CCC(NS(=O)(=O)c3ccc4ccccc4c3)C2)nc1 (stereo not drawn) [compound 31]
- IC50 [1]: 5960 nM
- Enzyme activity pIC50 [2]: 7.857

Structure (SMILES): O=C(NO)c1cnc(N2CCN(CCNS(=O)(=O)c3ccc4ccccc4c3)CC2)nc1 [compound 32]
- IC50 [1]: 556 nM
- Enzyme activity pIC50 [2]: 7.526

Structure (SMILES): O=C(NO)c1cnc(N2CCC(N(CCO)S(=O)(=O)c3ccc4ccccc4c3)CC2)nc1 [compound 34]
- IC50 [1]: 2400 nM
- Enzyme activity pIC50 [2]: 7.337

Structure (SMILES): COCCN(C1CCN(c2ncc(C(=O)NO)cn2)CC1)S(=O)(=O)c1ccc2ccccc2c1 [compound 35]
- IC50 [1]: 1160 nM
- Enzyme activity pIC50 [2]: 7.046

Structure (SMILES): O=C(NO)c1cnc(N2CCC(CNS(=O)(=O)c3ccccc3-c3ccc(CO)cc3)CC2)nc1 [compound 36]
- IC50 [1]: 1050 nM
- Enzyme activity pIC50 [2]: 7.265

Structure (SMILES): O=C(NO)c1cnc(N2CCC(CNS(=O)(=O)c3ccccc3-c3cccc(CO)c3)CC2)nc1 [compound 37]
- IC50 [1]: 2180 nM
- Enzyme activity pIC50 [2]: 7.341

Structure (SMILES): O=C(NO)c1cnc(N2CCC(CNS(=O)(=O)c3ccccc3-c3ccoc3)CC2)nc1 [compound 38]
- IC50 [1]: 1160 nM
- Enzyme activity pIC50 [2]: 7.154

Structure (SMILES): Cc1cccc(-c2ccccc2S(=O)(=O)NCC2CCN(c3ncc(C(=O)NO)cn3)CC2)c1 [compound 39]
- IC50 [1]: 885 nM
- Enzyme activity pIC50 [2]: 7.126

Structure (SMILES): O=C(NO)c1cnc(N2CCC(CNS(=O)(=O)c3ccccc3-c3ccsc3)CC2)nc1 [compound 40]
- IC50 [1]: 685 nM
- Enzyme activity pIC50 [2]: 7.273

Structure (SMILES): Cc1ccccc1-c1ccccc1S(=O)(=O)NCC1CCN(c2ncc(C(=O)NO)cn2)CC1 [compound 41]
- IC50 [1]: 471 nM
- Enzyme activity pIC50 [2]: 7.403

Structure (SMILES): COc1cccc(-c2ccccc2S(=O)(=O)NCC2CCN(c3ncc(C(=O)NO)cn3)CC2)c1 [compound 42]
- IC50 [1]: 455 nM
- Enzyme activity pIC50 [2]: 7.584

Structure (SMILES): O=C(NO)c1cnc(N2CCC(CNS(=O)(=O)c3ccccc3-c3cc4ccccc4o3)CC2)nc1 [compound 43]
- IC50 [1]: 738 nM
- Enzyme activity pIC50 [2]: 7.469

Structure (SMILES): CN(C)c1ccc(-c2ccccc2S(=O)(=O)NCC2CCN(c3ncc(C(=O)NO)cn3)CC2)cc1 [compound 44]
- IC50 [1]: 643 nM
- Enzyme activity pIC50 [2]: 7.432

Structure (SMILES): COc1ccc(-c2ccccc2S(=O)(=O)NCC2CCN(c3ncc(C(=O)NO)cn3)CC2)cc1 [compound 45]
- IC50 [1]: 513 nM
- Enzyme activity pIC50 [2]: 7.371
